From patent US5886162A, “Lipophilic diakylaminomethylene prodrug derivatives for the inhibition of replication of viruses” (Research Foundation of State University of New York, priority 1991, dated 1999)
Where “and” joins values, the source holds several entries; their conditions need not be identical. Equal entries are not always repeated. Where two headings read alike, the source gives them in different places.

Assays:
viral replication = conditions: background; cited from earlier work
[1] = cited from earlier work
[2] = Reverse phase HPLC retention time comparison (lipophilicity); type: physicochemical; conditions: measure of lipophilicity
Description: A series of compounds were produced in accord with the method of Example 1 with various substitutions of 2' deoxycytidine at the N^4 position of the dialkylaminomethylene side chain.
Because of economic considerations 2'-deoxycytidine, was used as the parent nucleoside for comparison purposes in this study.

[3] = test system: human immunodeficiency virus (HIV-1, strain LAV); experiment: NCI in vitro anti-HIV drug screen, antiviral activity; type: cell-based; conditions: for activity against human immunodeficiency virus: HIV-1, strain LAV, NCI In-Vitro Testing Program
Method: (§1) The protocol used in NCI's Developmental Therapeutics Program AIDS antiviral drug screening program involves plating of susceptible human "host" cells with and without virus in microculture plates, adding various concentrations of test material, incubating the plates for seven days (during which time infected, non-drug treated control cells are largely or totally destroyed by the virus), and then determining the number of remaining viable cells using a calorimetric endpoint. The dose dependent antiviral activity and cytotoxicity were determined and plotted on a graph illustrated as FIG. 1.
(§2) Two parameters are extracted from the curves illustrated in FIG. 1: the EC50, representing the concentration of drug that results in a 50% reduction of the viral cytopathic effect; and the IC50, representing the concentration of drug resulting in 50% cytotoxicity (growth inhibition derived from the normal, uninfected cultures). An in-vitro therapeutic index (TI) may be calculated as the ratio (IC50 /EC50)if both values are obtained.

[4] = Rate of hydrolysis in phosphate buffer by UV spectroscopy and HPLC; type: physicochemical; conditions: 10 mM K-phosphate buffer, pH 7.4, read-out: half-life (t1/2) of hydrolysis (converted)
Method: The rates of hydrolysis of the different derivatives appear to depend greatly on the structure of the substituent introduced at the exocyclic NH2 group. For example, the half-life (t1/2) of N^4 -dimethylaminomethylene […] (compound 3 in Table 1) is 5 hours at 37° in 10 mM K-phosphate buffer at pH 7.4, as determined by UV spectroscopy and HPLC analysis. Under the same conditions, N^4 -diisopropylamino-methylene-2'-deoxycytidine (compound 7 in Table 1) has a t1/2 =3 days. Thus, there is an order of magnitude difference in the rate of hydrolysis of these two side chains. The variations in the susceptibility to hydrolysis provide another parameter for the optimization of the pharmacokinetic profile.

HIV = experiment: NCI in vitro anti-HIV drug screen, protection of CEM cells against HIV; type: cell-based; conditions: Human immunodeficiency virus 1, CCRF-CEM, 168 h; CEM cell line; read-out: concentration giving complete protection against HIV
Method: as §1, §2

[5] = NCI in vitro anti-HIV drug screen, cytotoxicity, CEM cells; type: cell-based, human; conditions: human, cem cells, CEM, read-out: IC50 (cytotoxicity)
Method: as §1, §2

CEM = experiment: as above; type: cell-based, human; conditions: CEM cell line, 8 micromolar
Method: as §1, §2

[6] = NCI in vitro anti-HIV drug screen, cytotoxicity, ATH8 cells; type: cell-based; conditions: human, ATH8, test of 9-08-87, uninfected cultures, seven days, read-out: IC50 (cytotoxicity)
Method: as §1, §2

[7] = NCI in vitro anti-HIV drug screen, cytotoxicity, C3-44 cells; type: cell-based; conditions: human, C3-44, tests of 3-15-88 and 3-16-88, uninfected cultures, seven days, read-out: IC50 (cytotoxicity)
Method: as §1, §2

[8] = NCI in vitro anti-HIV drug screen, cytotoxicity, LDV-7 cells; type: cell-based; conditions: human, LDV-7, tests of 3-15-88, 3-16-88, 3-25-88, uninfected cultures, seven days, read-out: IC50 (cytotoxicity)
Method: as §1, §2

[9] = NCI in vitro anti-HIV drug screen, cytotoxicity, MT-2 cells; type: cell-based; conditions: human, MT-2, tests of 1-29-88 and 3-25-88, uninfected cultures, seven days, read-out: IC50 (cytotoxicity)
Method: as §1, §2

[10] = NCI in vitro anti-HIV drug screen, cytotoxicity, five different cell lines; type: cell-based, human; conditions: human; all five different cell lines; IC50 could not be reached up to highest concentration employed; read-out: IC50 (50% cytotoxicity)
Method: as §1, §2

[11] = test system: five different cell lines; experiment: as above; type: cell-based, human; conditions: all five different cell lines, up to highest concentration employed
Method: as §1, §2

viral p24 antigen = experiment: Viral p24 antigen by enzyme-linked immunosorbent assay in CEM cells; type: cell-based, HIV; conditions: FIG. 2

In the case of Nc1ccn([C@H]2CC[C@@H](CO)O2)c(=O)n1 [ddC, 2', 3'-dideoxycytidine], the “inhibition of viral replication” value (viral replication) is given as “effective in inhibiting viral replication”, the dose limiting toxicity ([1]; Phase I and II trials) is given as “peripheral neuropathy” and the bone marrow toxicity ([1]; human, in vivo) is given as “much less bone marrow suppression”.

With O=c1nc(N=CN2CCCC2)ccn1[C@H]1C[C@H](O)[C@@H](CO)O1 [Compound 4, N^4 -Pyrrolidinomethylene-2'-deoxycytidine] the “RETENTION TIME” value [2] was 5.16 min.

In the case of O=c1nc(N=CN2CCCCC2)ccn1[C@H]1C[C@H](O)[C@@H](CO)O1 [Compound 6, N^4 -Piperidinomethylene-2' deoxycytidine], the “RETENTION TIME” value [2] is reported as 7.79 min.

For CC1CCCC(C)N1C=Nc1ccn([C@H]2C[C@H](O)[C@@H](CO)O2)c(=O)n1 (some centres unmarked) [Compound 8, N^4-2,6-Dimethylpiperidino-methylene-2'-deoxycytidine], the “RETENTION TIME” value [2] was 21.81 min.

In the case of Nc1ncnc2c1ncn2[C@H]1CC[C@@H](CO)O1 [2', 3'-dideoxyadenosine], the “inhibition of viral replication” value (viral replication) is listed as “effective in inhibiting viral replication”.

With O=c1nc(N=CN2CCOCC2)ccn1[C@H]1C[C@H](O)[C@@H](CO)O1 [Compound 2, N^4 -Morpholinomethylene-2'-deoxycytidine] the “RETENTION TIME” value [2] was 3.07 min.

For CCCCN(C=Nc1ccn([C@H]2C[C@H](O)[C@@H](CO)O2)c(=O)n1)CCCC [Compound 9, N^4 -Di-n-butylamino-methylene-2'-dioxycytidine], the “RETENTION TIME” value [2] was 125 min.

For Cc1cn([C@H]2C[C@H](N=[N+]=[N-])[C@@H](CO)O2)c(=O)[nH]c1=O [AZT], the half-life ([1]; human, in vivo) is given as “short half-life”, the therapeutic benefit ([1]; patients with AIDS or AIDS related complex (ARC)) is given as “considerable therapeutic benefit” and the bone marrow toxicity ([1]; patients, ddC compared to AZT, Phase I and II trials) is given as “severe bone marrow toxicity”.

With CN(C)C=Nc1ccn([C@H]2CC[C@@H](CO)O2)c(=O)n1 [DAM-ddC, N^4-dimethylaminomethylene-2', 3'-dideoxycytidine] the “activity against human immunodeficiency virus” value [3] was “Significant activity” and the antiviral activity ([3]; anti-HIV drug screen, FIG. 3) was “significant antiviral activity”.

Compound CC(C)N(C=Nc1ccn([C@H]2C[C@H](O)[C@@H](CO)O2)c(=O)n1)C(C)C [Compound 7, N^4 -Diisopropylamino-methylene-2'-deoxycytidine] has a half-life ([4]; same conditions: 37°) of 72 h.

For Nc1ccn([C@H]2C[C@H](O)[C@@H](CO)O2)c(=O)n1 [Compound 1, 2'-Deoxycytidine, reference compound], the “RETENTION TIME” value [2] was 2.13 min.

With CN(C)C=Nc1ccn([C@H]2C[C@H](O)[C@@H](CO)O2)c(=O)n1 [Compound 3, N^4-dimethylaminomethylene-2'-deoxycytidine] the “RETENTION TIME” value [2] was 3.26 min and the half-life ([4]; 37°) was 5 h.

In the case of CCN(C=Nc1ccn([C@H]2C[C@H](O)[C@@H](CO)O2)c(=O)n1)CC [Compound 5, N^4 -Diethylaminomethylene-2'-deoxycytidine], the “RETENTION TIME” value [2] is reported as 6.44 min.

In the case of CN(C)C=Nc1ccn([C@H]2C[C@H](F)[C@@H](CO)O2)c(=O)n1 [DDFC, N^4-dimethylaminomethylene-2', 3'-dideoxy-3'-fluorocytidine], the “antiviral activity in several cell lines” value ([3]; FIG. 1, several cell lines) is reported as “significant antiviral activity”, the “activity against human immunodeficiency virus” value [3] is reported as “Significant activity” and the EC100 (HIV) is reported as 8 µM. For the same compound, the CC50 at 168 h ([5]; test of 1-23-88, highest concentration tested) was > 200 nM and > 0.055 µg/mL, the CC50 at 168 h ([5]; tests of 1-13-88, 3-15-88, 3-25-88, 3-16-88, uninfected cultures, seven days) was > 200 µM and > 56 µg/mL and the “cytotoxicity at the concentration of complete protection” value (CEM) was “without any cytotoxicity”. For the same compound, the CC50 at 168 h [6] was > 200 µM and > 56 µg/mL, the CC50 at 168 h [7] was > 200 µM and > 56 µg/mL and the CC50 at 168 h [8] was > 200 µM and > 56 µg/mL. For the same compound, the CC50 at 168 h [9] was > 200 µM and > 56 µg/mL, the CC50 at 168 h [10] was over 200 µM and the cytotoxicity observed [11] was “uniformly very little cytotoxicity”. The “correlation of protection against cytopathic effect of HIV with p24 antigen” value (viral p24 antigen) was “correlated with the decrease in the presence of viral p24 antigen”.
